Patent publication US20230111310A1, “CARBOXYLIC ACID DERIVATIVE-SUBSTITUTED IMINO ARYL COMPOUND, PREPARATION METHOD THEREFOR, HERBICIDAL COMPOSITION AND USE THEREOF” (Qingdao Kingagroot Chemical Compound Co., Ltd., priority 2020, published 2023)

What was measured:
Experiment in all cases: Weeding effect in post-emergence stage
Assay type in all cases: in vivo
Details in all cases: Dose 15 g/ha; level of fresh weight growth control rate
Alopecurus japonicus = test system: Alopecurus japonicus
Method in brief: (§1)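 Pot-grown weeds were sprayed at the 2-3 leaf stage, 2 weeks after sowing, with compound in acetone plus Tween 80 and 1.5 liter/ha methyl oleate emulsifiable concentrate, diluted in water. Doses were 500, 250, 125, 60, 30, 15, 7.5 g/ha. Growth control was scored after 3 weeks in greenhouse; mean of three replicates.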

Eleusine indica = test system: Eleusine indica
Method in brief: as §1

Abutilon theophrasti = test system: Abutilon theophrasti
Method in brief: as §1

Digitaria sanguinalis = test system: Digitaria sanguinalis
Method in brief: as §1

Setaria viridis = test system: Setaria viridis
Method in brief: as §1

Echinochloa crusgalli = test system: Echinochloa crusgalli
Method in brief: as §1

Row | Structure (SMILES) | Weeding effect in post-emergence stage, Alopecurus japonicus (Alopecurus japonicus) | Weeding effect in post-emergence stage, Eleusine indica (Eleusine indica) | Weeding effect in post-emergence stage, Abutilon theophrasti (Abutilon theophrasti) | Weeding effect in post-emergence stage, Digitaria sanguinalis (Digitaria sanguinalis) | Weeding effect in post-emergence stage, Setaria viridis (Setaria viridis) | Weeding effect in post-emergence stage, Echinochloa crusgalli (Echinochloa crusgalli)
1 | C[C@@H](O/N=C/c1cc(-n2c(=O)n(C)c(=S)n(C)c2=O)c(F)cc1Cl)C(=O)OCCCF [11(R)] | 5 (Level 5: growth control rate is above 85%) | 5 (Level 5: growth control rate is above 85%) | 5 (Level 5: growth control rate is above 85%) | 5 (Level 5: growth control rate is above 85%) | 5 (Level 5: growth control rate is above 85%) | 5 (Level 5: growth control rate is above 85%)
2 | C[C@@H](O/N=C/c1cc(-n2c(=O)n(C)c(=S)n(C)c2=O)c(F)cc1Cl)C(=O)OCCCC(F)(F)F [12(R)] | 5 (Level 5: growth control rate is above 85%) | 5 (Level 5: growth control rate is above 85%) | 5 (Level 5: growth control rate is above 85%) | 5 (Level 5: growth control rate is above 85%) | 5 (Level 5: growth control rate is above 85%) | 5 (Level 5: growth control rate is above 85%)
3 | COCCOC(=O)[C@@H](C)O/N=C/c1cc(-n2c(=O)n(C)c(=S)n(C)c2=O)c(F)cc1Cl [14(R)] | 4 (Level 4: growth control rate is greater than or equal to 60% and less than 85%) | 5 (Level 5: growth control rate is above 85%) | 5 (Level 5: growth control rate is above 85%) | 5 (Level 5: growth control rate is above 85%) | 5 (Level 5: growth control rate is above 85%) | 5 (Level 5: growth control rate is above 85%)
4 | CCOC(=O)COC(=O)[C@@H](C)O/N=C/c1cc(-n2c(=O)n(C)c(=S)n(C)c2=O)c(F)cc1Cl [17(R)] | 5 (Level 5: growth control rate is above 85%) | 5 (Level 5: growth control rate is above 85%) | 5 (Level 5: growth control rate is above 85%) | 5 (Level 5: growth control rate is above 85%) | 5 (Level 5: growth control rate is above 85%) | 5 (Level 5: growth control rate is above 85%)
5 | CC(C)=NOC(=O)[C@@H](C)O/N=C/c1cc(-n2c(=O)n(C)c(=S)n(C)c2=O)c(F)cc1Cl [20(R)] | 5 (Level 5: growth control rate is above 85%) | 5 (Level 5: growth control rate is above 85%) | 5 (Level 5: growth control rate is above 85%) | 5 (Level 5: growth control rate is above 85%) | 5 (Level 5: growth control rate is above 85%) | 5 (Level 5: growth control rate is above 85%)
6 | C[C@@H](O/N=C/c1cc(-n2c(=O)n(C)c(=S)n(C)c2=O)c(F)cc1Cl)C(=O)OCC1CCCO1 (stereo partly drawn) [24(R)] | 5 (Level 5: growth control rate is above 85%) | 5 (Level 5: growth control rate is above 85%) | 5 (Level 5: growth control rate is above 85%) | 5 (Level 5: growth control rate is above 85%) | 5 (Level 5: growth control rate is above 85%) | 5 (Level 5: growth control rate is above 85%)
7 | C[C@@H](O/N=C/c1cc(-n2c(=O)n(C)c(=S)n(C)c2=O)c(F)cc1Cl)C(=O)OCc1ccco1 [26(R)] | 5 (Level 5: growth control rate is above 85%) | 5 (Level 5: growth control rate is above 85%) | 5 (Level 5: growth control rate is above 85%) | 5 (Level 5: growth control rate is above 85%) | 5 (Level 5: growth control rate is above 85%) | 5 (Level 5: growth control rate is above 85%)
8 | C[C@@H](O/N=C/c1cc(-n2c(=O)n(C)c(=S)n(C)c2=O)c(F)cc1Cl)C(=O)OCc1ccccc1 [42(R)] | 4 (Level 4: growth control rate is greater than or equal to 60% and less than 85%) | 5 (Level 5: growth control rate is above 85%) | 5 (Level 5: growth control rate is above 85%) | 5 (Level 5: growth control rate is above 85%) | 5 (Level 5: growth control rate is above 85%) | 5 (Level 5: growth control rate is above 85%)
9 | C[C@@H](O/N=C/c1cc(-n2c(=O)n(C)c(=S)n(C)c2=O)c(F)cc1Cl)C(=O)OCc1cccnc1 [59(R)] | 4 (Level 4: growth control rate is greater than or equal to 60% and less than 85%) | 5 (Level 5: growth control rate is above 85%) | 5 (Level 5: growth control rate is above 85%) | 5 (Level 5: growth control rate is above 85%) | 5 (Level 5: growth control rate is above 85%) | 5 (Level 5: growth control rate is above 85%)
10 | C[C@@H](O/N=C/c1cc(-n2c(=O)n(C)c(=S)n(C)c2=O)c(F)cc1Cl)C(=O)OCc1ccncc1 [60(R)] | 4 (Level 4: growth control rate is greater than or equal to 60% and less than 85%) | 5 (Level 5: growth control rate is above 85%) | 5 (Level 5: growth control rate is above 85%) | 5 (Level 5: growth control rate is above 85%) | 5 (Level 5: growth control rate is above 85%) | 5 (Level 5: growth control rate is above 85%)
11 | CC[C@@H](O/N=C/c1cc(-n2c(=O)n(C)c(=S)n(C)c2=O)c(F)cc1Cl)C(=O)OC [72(R)] | 5 (Level 5: growth control rate is above 85%) | 5 (Level 5: growth control rate is above 85%) | 5 (Level 5: growth control rate is above 85%) | 5 (Level 5: growth control rate is above 85%) | 5 (Level 5: growth control rate is above 85%) | 5 (Level 5: growth control rate is above 85%)
12 | CCOC(=O)[C@H](O/N=C/c1cc(-n2c(=O)n(C)c(=S)n(C)c2=O)c(F)cc1Cl)C1CC1 [76(R)] | 5 (Level 5: growth control rate is above 85%) | 5 (Level 5: growth control rate is above 85%) | 5 (Level 5: growth control rate is above 85%) | 5 (Level 5: growth control rate is above 85%) | 5 (Level 5: growth control rate is above 85%) | 5 (Level 5: growth control rate is above 85%)
13 | COC[C@@H](O/N=C/c1cc(-n2c(=O)n(C)c(=S)n(C)c2=O)c(F)cc1Cl)C(=O)OC [80(R)] | 5 (Level 5: growth control rate is above 85%) | 5 (Level 5: growth control rate is above 85%) | 5 (Level 5: growth control rate is above 85%) | 5 (Level 5: growth control rate is above 85%) | 5 (Level 5: growth control rate is above 85%) | 5 (Level 5: growth control rate is above 85%)
14 | COC(=O)[C@@H](C)O/N=C/c1cc(-n2c(=O)n(C)c(=S)n(C)c2=O)c(F)cc1Br [83(R)] | 4 (Level 4: growth control rate is greater than or equal to 60% and less than 85%) | 5 (Level 5: growth control rate is above 85%) | 5 (Level 5: growth control rate is above 85%) | 4 (Level 4: growth control rate is greater than or equal to 60% and less than 85%) | 5 (Level 5: growth control rate is above 85%) | 5 (Level 5: growth control rate is above 85%)
15 | CCOC(=O)[C@@H](C)O/N=C/c1cc(-n2c(=O)n(C)c(=S)n(C)c2=O)c(F)cc1Br [84(R)] | 4 (Level 4: growth control rate is greater than or equal to 60% and less than 85%) | 5 (Level 5: growth control rate is above 85%) | 5 (Level 5: growth control rate is above 85%) | 4 (Level 4: growth control rate is greater than or equal to 60% and less than 85%) | 5 (Level 5: growth control rate is above 85%) | 5 (Level 5: growth control rate is above 85%)
